Measurements taken from US20090048461A1, “Regulators of Bacterial Signalling Pathways” (Biosignal Limited, priority 2004, published 2009).

Experiments:
[1] = system: Pseudomonas aeruginosa; test: Attachment of Pseudomonas aeruginosa (Example 10); format: cell-based; details: 50 μg/ml; 1:9 dilution of TBY medium, 6 hrs
Description: (§1) The experiments were performed in 96 well microtiter plates using a volume of 100 μl. The growth medium was BHI and the plates were incubated at 37° C. One % of overnight inoculum was used and the concentration of the compound to be tested was 50 μg/ml. Both growth and attachment of the cells were monitored at the end point of the experiments which was and after 24 hrs with P. canoris. The cells were stained with crystal violet and the absorbance was measured at 595 nm.
(§2) As Example 9, but the used medium was a 1:9 dilution of TBY medium and the incubation time was 6 hrs.

[2] = system: two-component signal transduction systems (Taz system); test: Taz-1 assay (two-component signal transduction, beta-galactosidase activity); format: cell-based, E. coli RU1012 (pYT0301); details: for reduction of beta-galactosidase activity: 3 mM aspartate, 4 hours; for inhibition of two-component signal transduction systems: no concentration stated
Description: The Taz-assay carried out according to the method of Jin and Inouyc (1993) with the following alterations. E. coli RU1012 (pYT0301) were grown overnight in M9 medium at 37° C. supplemented with 100 ug/ml ampicillin and 50 ug/ml kanamycin. This overnight culture was then used to inoculate 50 ml M9 medium in side-arm flasks which were then incubated at 37° C. and shaken at 180 rpm. The OD610 of the growing cultures was monitored regularly and when the OD610=0.2 the cultures were placed on ice […] to give a final concentration of 3 mM (aspartate stock solution made up in M9 salts).
The test compound or mixtures of compounds were dissolved in ethanol and added to cultures to give the required final concentrations. Negative controls were prepared with equal volumes of ethanol. Cultures were then placed in a 37° C. incubator and shaken for 4 hours (OD610 approximately 0.7) before being removed and put on ice. Samples were then removed for beta-galactosidase assays carried out according to the method of Miller (1972). Aspartate (the natural inducer of the Taz system) was used as a positive control at a concentration of 3 mmolar.

[3] = system: Pseudomonas aeruginosa; test: Growth of Pseudomonas aeruginosa (Example 10); format: cell-based; details: 50 μg/ml; 1:9 dilution of TBY medium, 6 hrs
Description: as §1, §2

[4] = system: V. harveyi reporter strain BB170 Al-2 bioluminescence; test: V. harveyi bioassay for the detection of Al-2 activity (bioluminescence); format: cell-based, Vibrio harveyi; details: concentration of 50 ug/ml
Description: The V. harveyi bioassay was performed as described previously (Surette and Bassler, 1998). The V. harveyi reporter strain BB170 was grown for 16 hours at 30° C. with shaking in AB medium. Cells were diluted 1:5,000 into 30° C. prewarmed AB medium and 90 ul of the diluted suspension was added to wells containing supernatant. Compounds to be tested were added to the wells to achieve the desired final concentrations and the final volume in each well was adjusted with sterile medium to 100 ul. Ten ul of V. harveyi BB152 (Al-1−, Al-2+) supernatant was used as a positive control and 10 ul of E. coli DH5α supernatant or sterile media was used as a negative control. […] The microtiter plates were incubated at 30° C. with shaking at 175 rpm. Hourly determinations of the total luminescence were quantified using the chemiluminescent setting on a Wallac (Gaithersburg, Md.) model 1450 Microbeta Plus liquid scintillation counter. The V. harveyi cell density was monitored by the use of a microplate reader (Bio-Rad, Hercules, Calif.). Activity is reported as the percentage of activity obtained from V. harveyi BB152 cell-free supernatant. While the absolute values of luminescence varied considerably between experiments, the pattern of results obtained was reproducible.

[5] = system: Porphyromonas canoris; test: Growth of Porphyromonas canoris (Example 9); format: cell-based; details: 50 μg/ml; BHI, 24 hrs
Description: as §1

[6] = system: Staphylococcus aureus; test: Growth of Staphylococcus aureus in sidearm flasks (absorbance 610 nm); format: cell-based
Description: Compounds 122 and 123 were tested against growth of Staphylococcus aureus. The experiments were performed in sidearm flasks and the growth was measured at 610 nm for 12 hours. Hundred μl of an overnight culture was added to 10 ml of growth medium. Nutrient Broth, containing furanones at concentrations 10 and 25 μg/ml. The bacteria were incubated at 37° C.

[7] = system: Pseudomonas aeruginosa (PA01 DO); test: Attachment of Pseudomonas aeruginosa (PA01 DO), crystal violet, microtiter plate; format: cell-based; details: no concentration stated
Description: The experiments were performed in 96 wells microtiter plates using a volume of 200 μl. The growth medium was M9 and the plates were incubated at 37° C. One % of overnight inoculum was used and the concentrations of the compounds to be tested were 25 and 50 μg/ml. The attachment of the cells were monitored at the endpoint of the experiment which was after 24 hrs. The cells were stained with crystal violet and the absorbance was measured at 595 nm. Reduction in attachment was measured against the control (PAO1 Do ETO ) set at 100%.

[8] = system: Porphyromonas canoris; test: Attachment of Porphyromonas canoris (Example 9); format: cell-based; details: 50 μg/ml; BHI, 24 hrs
Description: as §1

[9] = 25 μg/ml, Nutrient Broth, 37° C., 12 hours

Structure (SMILES): CCC(=O)/C(C)=C/Br [Compound 123, 2-(Bromomethylene)-3-Pentanone]
- effect on attachment to a surface [1]: significantly limits
- reduction of beta-galactosidase activity ([2]; concentration of 25ug/ml): 40%
- inhibition of two-component signal transduction systems [2]: act as inhibitors
- effect on growth [3]: relatively insignificant effect
- effect on bioluminescence activity [4]: significant increase
- effect on growth [5]: relatively insignificant effect
- growth inhibition ([6]; 10 μg/ml, Nutrient Broth, 37° C., 12 hours): slight growth inhibition
- prolonged lagphase of growth [6, 9]: 4 h
- growth inhibition compared to 122 ([6]; concentrations 10 and 25 μg/ml): more growth inhibitory
- effect on attachment [7]: reduce the attachment
- effect on attachment to a surface [8]: significantly limits

Structure (SMILES): CCCCC(=CBr)C(C)=O [Compound 101, 3-(Bromomethylene)-2-Heptanone]
- effect on bioluminescence activity [4]: significant increase

Structure (SMILES): CCC/C(=C\Br)C(C)=O [Compound 122, 3-(Bromomethylene)-2-Hexanone]
- effect on bioluminescence activity [4]: significant increase
- growth inhibition [6, 9]: slight growth inhibition
- effect on attachment [7]: reduce the attachment

Structure (SMILES): CC(=O)/C(C)=C/Br [Compound 80, 3-(Bromomethylene)-2-Butanone]
- reduction of beta-galactosidase activity ([2]; concentration of 50 ug/ml): 75%
- inhibition of two-component signal transduction systems [2]: act as inhibitors
